Columns and labels:
[1] = system: HBV replication in HepAD38 cells; experiment: Anti-HBV activity in HepAD38 cells, extracellular HBV DNA by QPCR; assay type: cell-based, HBV (genotype D, serotype ayw); details: Hepatitis B virus, HePAD38, 168 h, read-out: Anti-HBV EC50, HepAD38 cells, extracellular HBV DNA by QPCR, 7 days of incubation
Method in brief: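 Seven-day compound exposure (30 μM down to 10 nM, half-log steps) after tetracycline withdrawal induced HBV replication in HepAD38 cells. Extracellular viral DNA measured by QPCR (copies/mL via standard curve), normalised to DMSO wells; EC50 from 4-parameter non-linear regression.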

[2] = In vitro cytotoxicity, MTT cell viability assay in HepG2 cells; assay type: cell-based; details: human, Cytotoxicity CC50
Method in brief: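 HepG2 seeded overnight, then 7-day compound exposure (30 μM–1.0 nM, half-log steps), 37 °C. MTT 3-4 h, DMSO solubilization, A492. % of vehicle → CC50, 4-PL fit.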

SMILES | EC50 [1] [µM] | CC50 at 7 days [2] [µM]
Cc1cc(NC(=O)c2ccc(Cl)c(C(F)(F)C(=O)N3CC[C@@H](O)[C@H](O)C3)c2)ccc1F (racemic) [Example 56, (±)-4-chloro-3-(2-(3,4-dihydroxypiperidin-1-yl)-1,1-difluoro-2-oxoethyl)-N-(4-fluoro-3-methylphenyl)benzamide] | < 5 | > 30
Cc1cc(NC(=O)c2cc(C(F)(F)C(=O)N3CCC(O)CC3)n(C)c2)ccc1F [Example 97, 5-(1,1-difluoro-2-(4-hydroxypiperidin-1-yl)-2-oxoethyl)-N-(4-fluoro-3-methylphenyl)-1-methyl-1H-pyrrole-3-carboxamide] | < 5 | > 30
O=C(Nc1cc(F)c(F)c(F)c1)c1ccc(Cl)c(C(F)(F)C(=O)N2CCC(O)CC2)c1 [Example 34, 4-chloro-3-(1,1-difluoro-2-(4-hydroxypiperidin-1-yl)-2-oxoethyl)-N-(3,4,5-trifluorophenyl)benzamide] | < 5 | 5 to 30
O=C(Nc1cc(F)c(F)c(F)c1)c1ccc(F)c(C(F)(F)C(=O)N2CCC(O)C(F)(F)C2)c1 (centres unmarked) [Example 187, 3-(2-(3,3-difluoro-4-hydroxypiperidin-1-yl)-1,1-difluoro-2-oxoethyl)-4-fluoro-N-(3,4,5-trifluorophenyl)benzamide] | < 5 | 5 to 30
Cc1cc(NC(=O)c2ccc(F)c(C(F)(F)C(=O)N3CCc4[nH]c(=O)oc4C3)c2)ccc1F [Example 289, 3-(1,1-difluoro-2-oxo-2-(2-oxo-1,4,6,7-tetrahydrooxazolo[5,4-c]pyridin-5(2H)-yl)ethyl)-4-fluoro-N-(4-fluoro-3-methylphenyl)benzamide] | < 5 | 5 to 30
Cc1cc(NC(=O)c2ccc(C(F)(F)C(=O)N3CCC(O)CC3)n2C)ccc1F [Example 99, 5-(1,1-difluoro-2-(4-hydroxypiperidin-1-yl)-2-oxoethyl)-N-(4-fluoro-3-methylphenyl)-1-methyl-1H-pyrrole-2-carboxamide] | > 30 | > 30
Cc1cc(NC(=O)c2ccc(F)c(C(F)(F)C(=O)N3[C@@H]4COC[C@H]3CN(C(=O)N3CCS(=O)(=O)CC3)C4)c2)ccc1F [Example 210, 3-(2-((1R,5S)-7-(1,1-dioxidothiomorpholine-4-carbonyl)-3-oxa-7,9-diazabicyclo[3.3.1]nonan-9-yl)-1,1-difluoro-2-oxoethyl)-4-fluoro-N-(4-fluoro-3-methylphenyl)benzamide] | < 5 | > 30
Cn1cc(NC(=O)c2ccc(F)c(C(F)(F)C(=O)N3CCC(O)C(F)(F)C3)c2)cn1 (centres unmarked) [Example 179, 3-(2-(3,3-difluoro-4-hydroxypiperidin-1-yl)-1,1-difluoro-2-oxoethyl)-4-fluoro-N-(1-methyl-1H-pyrazol-4-yl)benzamide] | 5 to 30 | > 30
Cc1cc(NC(=O)c2c(C)cn(C)c2C(F)(F)C(=O)NC(C)(C)C)ccc1F [Example 114, 2-(2-(tert-butylamino)-1,1-difluoro-2-oxoethyl)-N-(4-fluoro-3-methylphenyl)-1,4-dimethyl-1H-pyrrole-3-carboxamide] | > 30 | > 30
Cc1ccc(C(=O)Nc2ccc(F)c(F)c2)cc1C(F)(F)C(=O)N1CCC(O)CC1 [Example 10, 3-(1,1-difluoro-2-(4-hydroxypiperidin-1-yl)-2-oxoethyl)-N-(3,4-difluorophenyl)-4-methylbenzamide] | 5 to 30 | 5 to 30
O=C(Nc1ccc(F)c(F)c1)c1ccc(F)c(C(F)(F)C(=O)NC2CCCCC2)c1 [Example 8, 3-(2-(cyclohexylamino)-1,1-difluoro-2-oxoethyl)-N-(3,4-difluorophenyl)-4-fluorobenzamide] | 5 to 30 | 5 to 30
Cc1cc(NC(=O)c2ccc(F)c(C(F)(F)C(=O)NCB(O)O)c2)ccc1F [Example 156, ((2,2-difluoro-2-(2-fluoro-5-((4-fluoro-3-methylphenyl)carbamoyl)phenyl)acetamido)methyl)boronic acid] | 5 to 30 | 5 to 30
Cc1cc(NC(=O)c2cccc(C(F)(F)C(=O)N3C4CC[C@@H]3C[C@@H](O)C4)c2F)ccc1F [Example 256, 3-(1,1-difluoro-2-((1R,3s,5S)-3-hydroxy-8-azabicyclo[3.2.1]octan-8-yl)-2-oxoethyl)-2-fluoro-N-(4-fluoro-3-methylphenyl)benzamide] | < 5 | 5 to 30
Cc1cc(NC(=O)c2cc(C(F)(F)C(=O)N3CCC(O)CC3)ccc2Cl)ccc1F [Example 95, 2-chloro-5-(1,1-difluoro-2-(4-hydroxypiperidin-1-yl)-2-oxoethyl)-N-(4-fluoro-3-methylphenyl)benzamide] | > 30 | > 30
Cc1cc(NC(=O)c2ccc(F)c(C(F)(F)C(=O)N3CCN4C(=O)NCC4C3)c2)ccc1F (centres unmarked) [Example 264, 3-(1,1-difluoro-2-oxo-2-(3-oxohexahydroimidazo[1,5-a]pyrazin-7(1H)-yl)ethyl)-4-fluoro-N-(4-fluoro-3-methylphenyl)benzamide] | < 5 | > 30
O=C(Nc1ccnc(Cl)c1)c1ccc(F)c(C(F)(F)C(=O)N2CCC(O)(CO)CC2)c1 [Example 198, N-(2-chloropyridin-4-yl)-3-(1,1-difluoro-2-(4-hydroxy-4-(hydroxymethyl)piperidin-1-yl)-2-oxoethyl)-4-fluorobenzamide] | < 5 | 5 to 30
Cc1cc(NC(=O)c2ccc(F)c(C(Cl)(Cl)C(=O)N3CC=C(B(O)O)CC3)c2)ccc1F [Example 151, (1-(2,2-dichloro-2-(2-fluoro-5-((4-fluoro-3-methylphenyl)carbamoyl)phenyl)acetyl)-1,2,3,6-tetrahydropyridin-4-yl)boronic acid] | < 5 | > 30
O=C(Nc1cc(F)c(F)c(F)c1)c1ccc(Cl)c(C(F)(F)C(=O)N2C3CC[C@@H]2C[C@@H](O)C3)c1 [Example 247, 4-chloro-3-(1,1-difluoro-2-((1R,3s,5S)-3-hydroxy-8-azabicyclo[3.2.1]octan-8-yl)-2-oxoethyl)-N-(3,4,5-trifluorophenyl)benzamide] | 5 to 30 | 5 to 30
Cc1cc(NC(=O)c2ccc(F)c(C(F)(F)C(=O)N3CC4CCC(C3)C4O)c2)ccc1F [Example 281, 3-(1,1-difluoro-2-((1R,5S,8s)-8-hydroxy-3-azabicyclo[3.2.1]octan-3-yl)-2-oxoethyl)-4-fluoro-N-(4-fluoro-3-methylphenyl)benzamide] | < 5 | 5 to 30
Cn1cc(C(=O)Nc2ccc(F)c(Cl)c2)cc1C(F)(F)C(=O)NCCO [Example 138, N-(3-chloro-4-fluorophenyl)-5-(1,1-difluoro-2-((2-hydroxyethyl)amino)-2-oxoethyl)-1-methyl-1H-pyrrole-3-carboxamide] | 5 to 30 | > 30
Cc1cc(NC(=O)c2ccc(F)c(C(F)(F)C(=O)N3[C@@H]4CCC[C@H]3C[C@@H](NS(C)(=O)=O)C4)c2)ccc1F [Example 336, 3-(1,1-difluoro-2-((1R,3r,5S)-3-(methylsulfonamido)-9-azabicyclo[3.3.1]nonan-9-yl)-2-oxoethyl)-4-fluoro-N-(4-fluoro-3-methylphenyl)benzamide] | < 5 | > 30
Cc1cc(NC(=O)c2cc(C(F)(F)C(=O)NC(C)(C)C)n(C)c2)ccc1F [Example 100, 5-(2-(tert-butylamino)-1,1-difluoro-2-oxoethyl)-N-(4-fluoro-3-methylphenyl)-1-methyl-1H-pyrrole-3-carboxamide] | < 5 | > 30
O=C(Nc1ccc(F)c(F)c1)c1ccc(F)c(C(F)(F)C(=O)N2CC[C@H](O)C2)c1 [Example 12, (S)-3-(1,1-difluoro-2-(3-hydroxypyrrolidin-1-yl)-2-oxoethyl)-N-(3,4-difluorophenyl)-4-fluorobenzamide] | 5 to 30 | 5 to 30
Cc1cc(NC(=O)c2ccc(F)c(C(F)(F)C(=O)N[C@H]3CCOB3O)c2)ccc1F [Example 150, (R)-3-(1,1-difluoro-2-((2-hydroxy-1,2-oxaborolan-3-yl)amino)-2-oxoethyl)-4-fluoro-N-(4-fluoro-3-methylphenyl)benzamide] | < 5 | > 30
Cc1cc(NC(=O)c2ccc(N)c(C(F)(F)C(=O)N3CCC(O)CC3)c2)ccc1F [Example 299, 4-amino-3-(1,1-difluoro-2-(4-hydroxypiperidin-1-yl)-2-oxoethyl)-N-(4-fluoro-3-methylphenyl)benzamide] | < 5 | 5 to 30
O=C(Nc1ccnc(Cl)c1)c1ccc(F)c(C(F)(F)C(=O)N2[C@@H]3CC[C@H]2C[C@H](O)C3)c1 [Example 197, N-(2-chloropyridin-4-yl)-3-(1,1-difluoro-2-((1R,3s,5S)-3-hydroxy-8-azabicyclo[3.2.1]octan-8-yl)-2-oxoethyl)-4-fluorobenzamide] | < 5 | < 5
Cc1cc(NC(=O)c2ccc(F)c(C(F)(F)C(=O)N3[C@@H]4CC[C@H]3C[C@@H](N)C4)c2)ccc1F [Example 226, 3-(2-((1R,3r,5S)-3-amino-8-azabicyclo[3.2.1]octan-8-yl)-1,1-difluoro-2-oxoethyl)-4-fluoro-N-(4-fluoro-3-methylphenyl)benzamide] | < 5 | 5 to 30
CCn1ccc(C(=O)Nc2ccc(F)c(C)c2)c1C(F)(F)C(=O)NC(C)(C)C [Example 135, 2-(2-(tert-butylamino)-1,1-difluoro-2-oxoethyl)-1-ethyl-N-(4-fluoro-3-methylphenyl)-1H-pyrrole-3-carboxamide] | 5 to 30 | > 30

Reference: patent US11247965B2 (VenatoRx Pharmaceuticals, Inc., priority 2017, dated 2022)
